The subject of one data set is PC12 cells. Nature of the data set: Cytotoxicity, MTS cell proliferation assay. It counts as cell-based. To be noted: 24 h. Here is the method: (§1) Before testing the material in vivo, test materials were evaluated in vitro with C2C12 and PC12 cells to assess cytotoxicity to muscle and nerve cells respectively. Different compounds were directly added into the cell culture media (1 mg/mL, 0.33 mg/mL and 0.11 mg/mL) and incubated in the media bathing the cells (i.e. in direct contact with them) in conventional cell culture wells. After 24 h, cell viabilities were evaluated with the MTS assay, and their survival expressed as percentages of results in untreated cells. […] Due to the high molecular weight of the polymer-containing samples, their molar concentrations were perforce lower than that of the small molecule tetracaine. It would not be practical to culture cells in media containing the polymer concentration to be used in vivo (20 wt %), which would be very viscous. Therefore, test materials were placed in Transwell® inserts such that they were in continuity with the cell culture media.
(§2) Cytotoxicity analysis. For the “direct contact” experiments, the cells were incubated in 48-well plates with concentration of formulations of 1, 0.33, 0.11 mg/mL in the media for all samples. For the “indirect contact” experiments, the cells were incubated in 24-well plates with a transwell in each well, in which 50 μL of tetracaine (0.5% wt %) or P407 (20% wt %) or P407-CM-T (20% wt %) was applied. After 24 h, the cell viabilities were evaluated with MTS assay as percentages of the control.

Another data set relates to C2C12 cells. Nature of the data set: Cytotoxicity, MTS cell proliferation assay. Format: cell-based. As to conditions: 24 h. The method, then: as §1, §2
For orientation: Tetrazolium assays rely on reduction of a dye to a coloured formazan, in cell work by metabolically active cells.

The test system of a further data set is rat footpad. Nature of the data set: Phototriggered local anesthesia (nerve block) after rat footpad injection, Touch Test neurobehavioral testing. As to conditions: irradiance 0 W/cm^2, irradiation duration 0 min (no irradiation). It counts as in vivo. Here is the method:
The effectiveness of light-triggered anesthesia using P407-CM-T was assessed in vivo after footpad injection in the rat (Table 1);^17, 28-32 this model was selected because it was anticipated that 400 nm light would not penetrate deeply into tissue.^33
A hundred microliters of 20 wt % P407-CM-T were injected into the plantar aspect of the rat hind paw. […] Irradiation of the site of administration immediately after injection with a 400 nm LED at 200 mW/cm^2 for two minutes caused local anesthesia lasting 19.5±4.5 min (FIGS. 5A-5B). Local anesthesia was prolonged to 36.5±8.9 min (FIG. 5B) by increasing the irradiance to 300 mW/cm^2 also for 2 minutes (p<0.05 compared to 200 mW/cm^2). Extending the irradiation time to five minutes at 300 mW/cm^2 further extended local anesthesia to 66.7±24 min (p<0.05 compared to 300 mW/cm^2 for 2 min, FIG. 5B).
It would be important for a light-triggerable local anesthetic system to be triggered repeatedly, so as to be able to treat pain over an extended period. To assess the ability of P407-CM-T to provide repeated on-demand local anesthesia, animals were injected in the footpad with 0.1 mL of 20 wt % P407-CM-T (FIG. 4D). […] The animal was then irradiated at the site of injection with 400 nm light at 300 mW/cm^2 for 2 min. […]

Turning to `CCCCNc1ccc(C(=O)OCCN(C)C)cc1` [Tetracaine, tetracaine], the “Cell viability (MTS)” value is reported as “greatly reduced cell survival” in the data set on PC12 cells (PC12, Transwell inserts, tetracaine 0.5% wt %, P407 20% wt %, P407-CM-T 20% wt %) and “greatly reduced cell survival” with C2C12 cells (C2C12, Transwell inserts, tetracaine 0.5% wt %, P407 20% wt %, P407-CM-T 20% wt %). Also, the “Cytotoxicity (cell survival, MTS)” value in the data set with PC12 cells (PC12, direct contact, 1, 0.33 and 0.11 mg/mL in media) is “high cytotoxicity”; with C2C12 cells (C2C12, direct contact, 1, 0.33 and 0.11 mg/mL in media) it was “high cytotoxicity”. For the same compound, the “Duration of Block” value with rat footpad is reported as 28.6 ± 7.1 min.

Source of the values: patent US12427196B2, “Macromolecular prodrugs for light-emitting diodes and uses thereof” (Children's Medical Center Corporation, priority 2020, dated 2025).
